Entries after “also recorded” stand apart in the source; their conditions may differ. Read-outs that look alike come from different tables or passages of the source.
Experiments:
[1] = test system: incubated bovine corneal endothelial cell; assay: cell-activating effect, MTT assay-based method; details: for cell-activating effect (absorbance at 450 nm): 5 and 20 mM, 48 hrs incubation, vs control containing no HBA
Description: The D-form, D,L-form and L-form of D-3-HBA were dissolved in the DULBECCO's MEM salt incubation media at concentrations of 0 (control), 5 and 20 mM, respectively, and the resulting solutions were injected into a 24-well collagen-coated plate implanted (4×10^4 cell/ml) with a pre-incubated bovine corneal endothelial cell and then incubated for 48 hrs. After the incubation, 50 μl of cell-counting kit (product of DOJIN KAGAKU Ltd.) was added to each well to develop colors, and absorbance at 450 nm was measured by using each supernatant.

[2] = test system: cultured bovine corneal endothelial cells damaged by ultrasound
Description: As an invasive model assuming a phacoemulsification and aspiration method used as a surgical method of cataract, incubated bovine corneal endothelial cells damaged by ultrasound were subjected to an experiment for examining the recovery of their barrier function.
Using the incubated bovine corneal endothelial cells damaged by ultrasound, the barrier function-recovering effects of D-3-HBA and oxyglutathione were subjected to an experiment in accordance with the following procedure.
The monolayer of cultured bovine corneal endothelial cells on a filter, which had been damaged by sonication to the cells at 92 W/cm^2 three course at intervals of 0.1 sec, was incubated in DULBECCO's MEM medium (with 10% of embryonic bovine serum) containing 20 mM of D-3-HBA or 0.3 mM of oxyglutathione.

corneas of Dutch rabbits = details: 90 minutes irrigation
Description: Irrigating solution No.1 (Example) and solutions No.3, No.4 and No.5 (Comparative Examples) for testing were prepared by dissolving the predetermined amounts of the components listed in Table 2 and, finally, D-3-HBA so as to adjust the total amounts of the aqueous solutions to be 1 liter; adjusting the pHs of the solutions by diluted hydrochloric acid, and subjecting the solutions to aseptic treatment.
Dutch rabbits (male and female weighing 1.9 to 2.9 kg) were used for an experiment. Experiments were performed in rabbit, anesthetized with intramuscular xylazine hydrochloride (“celactal®”, a product Bayer AG.,) and ketamine hydrochloride (“ketalar®”, a product of Sankyo Co. Ltd,.) through intramuscular injection, a 3.2-mm-wide incision was made corneas limbusing a scalpel for ocular surgery. Subsequently, 18-gauge injection needles having a rounded tip were inserted in the anterior chambers through the incisions, and the irrigating solutions were allowed to irrigate at a flow rate of 10 ml/min for 90 minutes. After the irrigation, the incisions were sewed up once by a sewing needle with a suture. The corneal thicknesses were measured by the ultrasonic pachymeter used in Example 4 before and during the perfusion (at intervals of 30 minutes).

Row | Structure (SMILES) | cell-activating effect (absorbance at 450 nm) [1] | cell-activating effect (absorbance at 450 nm) ([1]; listed as D-form) | optimum concentration for cell-activating effect ([1]; tested at 5 and 20 mM, 48 hrs) [mM] | recovery of the barrier function ([2]; 20 mM in MEM medium after sonication damage) | electrical resistance value of the endothelial layer ([2]; 20 mM in MEM medium, vs MEM with 0.3 mM oxyglutathione and MEM alone) | effect of keeping the change in the corneal thickness small (corneas of Dutch rabbits; bicarbonate ions added to the irrigating solution (FIG. 5)) | effect of keeping the change in the corneal thickness small (corneas of Dutch rabbits; bicarbonate ions not added to the irrigating solution (FIG. 6))
1 | CC(O)CC(=O)O (racemic) [D,L-form, reference compound] | did not show a significant difference |  |  |  |  |  | 
2 | C[C@@H](O)CC(=O)[O-].[Na+] [Solution D-3-HBA, sodium D-3-hydroxy butyrate] | the most active at any concentrations | activity is obtained | 20 | quick recovery effect | closer to the value before the irradiation of ultrasound at any observation time | significant | not significant
3 | C[C@H](O)CC(=O)O [L-form, reference compound] | hardly obtained; also recorded: did not show a significant difference in activity at any concentrations |  |  |  |  |  | 
